7 molecules from PubChem BioAssay (NCI) can be followed below.

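Results reflect a 48-hour exposure of cells in 96-well plates to compound at five concentrations. At the GI50, growth is halved. TGI: concentration producing complete growth inhibition.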

Assay in all cases: growth of human tumour cells (NCI), 48 h
In assay [1] the test system is SF-268 CNS.
Assay [2] deals with RPMI-8226 leukemia.
For assay [3], the system named is HOP-62 NSCLC.
Assay [4] concerns SK-MEL-2 melanoma.
Assay [5] relates to HCT-15 colon.
Assay [6] deals with A549 NSCLC.
Assay [7] deals with NCI-H460 lung.
The subject of assay [8] is M14 melanoma.
Assay [9] has as its system OVCAR-8 ovarian.
Assay [10] deals with NCI/ADR-RES ovarian.

With `CC(C)c1ccc(Nc2ccc3c(OCCCN4CCN(C)CC4)cccc3n2)cc1`, the GI50 in [1] was 12.2 µM; in assay [2] it was 3.39 µM; in [3], 12 µM; in assay [4], 19.6 µM; in assay [5] it was 1.94 µM; in assay [6], 15.6 µM. Besides, the GI50 was 5.44 µM in assay [7], 2.85 µM in assay [8], 17.8 µM in assay [9] and 15.9 µM in assay [10]. Besides, the TGI amounted to 27.4 µM in [1]; 14.3 µM in assay [2]; 26.4 µM in assay [3]; 36.5 µM in assay [4]; 4.28 µM in assay [5]; 29.8 µM in assay [6]. Also, the TGI came to 18 µM in [7], 10.4 µM in assay [8], 33.3 µM in assay [9] and 32.9 µM in [10].

For the molecule `C/C(=C\CCc1ccoc1)CC/C=C(\C)CCCC1=CC(=O)OC1`, the GI50 in [1] was 17.7 µM; in assay [2] it was 2.85 µM; in assay [3] it was 16 µM; in assay [4] it was 9.35 µM; in assay [5], 4.47 µM; in assay [6] it was 4.37 µM. The GI50 is 5.21 µM in [7], 7.28 µM in assay [8], 5.11 µM in assay [9] and 5.42 µM in [10]. The TGI in assay [1] was > 100 µM; in [2], 16.7 µM; in assay [3] it was 55 µM; in assay [4], 22.6 µM; in assay [5], 20 µM; in assay [6], > 100 µM. Besides, the TGI in assay [7] turned out to be 27.8 µM; in assay [8], 45 µM; in [9] it was 29.8 µM; in assay [10], 31 µM.

Take `COc1cc(Nc2cn[nH]c2-c2ccc(Cl)cc2)cc(OC)c1OC`: the GI50 was 6.76 µM in assay [1]; 2.48 µM in assay [2]; 6.91 µM in assay [3]; 6.82 µM in assay [4]; 4.35 µM in assay [5]; 5.96 µM in assay [6]. In addition, the GI50 in [7] was 3.7 µM; in assay [8] it was 2.5 µM; in assay [9], 14.3 µM; in assay [10], 4.42 µM. The TGI in assay [1] was > 70.5 µM; in assay [2] it was 12.3 µM; in [3] it was 44.5 µM; in assay [4], 41.5 µM; in assay [5], 50 µM; in [6], > 100 µM. The TGI is 19.1 µM in [7], 9.41 µM in [8], > 100 µM in assay [9] and > 36.8 µM in [10].

As for `Cc1c2cccnc2c(C)c2c1c1cc(CO)ccc1n2C`, the GI50 in assay [1] was 2.29 µM; in assay [2], 2.09 µM; in [3] it was 1.31 µM; in [4], 2.87 µM; in assay [5], 2 µM; in assay [6], 2.65 µM. For the same molecule, the GI50 is 1.23 µM in assay [7], 2.49 µM in assay [8], 1.55 µM in assay [9] and 1.3 µM in assay [10]. Also, the TGI in [1] came out at 15.1 µM; in assay [2] it was 7.3 µM; in assay [3] it was 6.52 µM; in assay [4], 8.47 µM; in [5], 15.4 µM; in assay [6], 11.7 µM. For the same molecule, the TGI in assay [7] was found to be 6.12 µM; in assay [8], 10.4 µM; in [9], 18.1 µM; in assay [10], 8.51 µM.

Consider `C/C1=C\CC[C@@]2(C)O[C@@H]2[C@H]2OC(=O)[C@@H](CN(C)C)[C@@H]2CC1`, for which the GI50 in [1] is 38.7 µM; in [2], 2.39 µM; in assay [3] it was 20.9 µM; in assay [4], 14.2 µM; in assay [5], 15.9 µM; in [6], 19.6 µM. For the same molecule, the GI50 is 32.8 µM in assay [7], 16.3 µM in assay [8], 23.2 µM in assay [9] and 14.7 µM in [10]. Also, the TGI in assay [1] was > 100 µM; in assay [2] it was 23.1 µM; in assay [3] it was 40.4 µM; in assay [4], 34.8 µM; in assay [5], 34.3 µM; in assay [6] it was 63.3 µM. The TGI is > 100 µM in assay [7], 35.2 µM in assay [8], 52.8 µM in assay [9] and 59.9 µM in [10].

In the case of `COc1ccc2c(c1)C(C)Cc1c(Cl)ncnc1N2C` (stereo not given), the GI50 is 0.359 µM in assay [1]; 0.629 µM in assay [2]; 0.475 µM in [3]; 0.405 µM in assay [4]; 0.402 µM in assay [5]; 0.432 µM in assay [6]. Moreover, the GI50 is 0.493 µM in assay [7], 0.345 µM in [8], 0.463 µM in assay [9] and 0.388 µM in [10]. Moreover, the TGI in assay [1] is 22.9 µM; in [2] it was 16 µM; in assay [3], 20.1 µM; in [4], 2.12 µM; in assay [5], > 32.3 µM; in assay [6], > 100 µM. The TGI in assay [7] was > 100 µM; in assay [8], 7.99 µM; in assay [9], 25.2 µM; in assay [10] it was 11.2 µM.

Take `Clc1coc2nc3ccccc3c(Nc3ccc4c(c3)OCO4)c12`: the GI50 in assay [1] is 5.6 µM; in assay [2] it was 1.45 µM; in assay [3] it was 0.781 µM; in assay [4] it was 5.99 µM; in assay [5], 0.429 µM; in assay [6], 0.995 µM. Also, the GI50 in assay [7] was 1.98 µM; in [8], 0.699 µM; in assay [9] it was 2.33 µM; in assay [10] it was 0.512 µM. The TGI is 54 µM in [1]; 4.44 µM in [2]; 21.9 µM in assay [3]; > 100 µM in assay [4]; 8.05 µM in assay [5]; 22.3 µM in [6]. The TGI worked out at 14.5 µM in [7], 13.8 µM in [8], 21.2 µM in assay [9] and 8.01 µM in assay [10].
